Tested on: Male C57BL/6/Bkl mice
Experiment: Forced swimming test in mice
Format: in vivo
Procedure: Male C57BL/6/Bkl mice (Scanbur BK AB, Sweden) weighing 20-25 g were used. Mice were kept 10 per cage (21×37×15 cm) in an animal house at 20° C. in a 12 h light/dark cycle (light on at 7.00 a.m.). Tap water and food pellets were available ad libitum. The animals were kept for at least two weeks in the animal colony before entering experiments. The measurement of locomotor activity, and forced swimming test were carried out consecutively 45 and 55 min after treatment with study compounds, according to Volke V, Wegener G, Bourin […]. […] Behavioural Brain Research 2003; 140: 141-147. In a separate experiment arginase product L-ornithine or saline was injected 15 min prior to L-norvaline. The Forced Swimming test was performed as described by Porsolt et al Porsolt R D, Bertin A, Jalfre M. Behavioral despair in mice: a primary screening test for antidepressants. Arch Int Pharmacodyn Ther 1977; 229: 327-336. A glass cylinder with a diameter of 12 cm was filled with 8 cm water at 25° C. An animal was put into the water and its behaviour was videotaped during 6 min. An observer blind to treatment protocol counted the immobility time during the last 4 min of the 6 min test.

[1] = Example 2, separate experiment (FIG. 2), 500 mg/kg each, L-ornithine or saline injected 15 min prior to L-norvaline, saline 199 sec

Molecule	immobility time (400 mg/kg i.p., separate experiment, control 219 sec) [s]	effect on immobility time (lower doses 10-100 mg/kg i.p.)	immobility time [1] [s]	immobility time (20 mg/kg i.p., 55 min after treatment, last 4 min of 6 min test, control 220 sec (FIG. 1)) [s]	immobility time (100 mg/kg i.p., 55 min after treatment, last 4 min of 6 min test, control 220 sec (FIG. 1)) [s]	immobility time (500 mg/kg i.p., 55 min after treatment, last 4 min of 6 min test, control 220 sec (FIG. 1)) [s]
difluoromethylornithine [DFMO]	191	ineffective	–	–	–	–
NCCC[C@H](N)C(=O)O [L-ornithine]	–	–	214	–	–	–
CCC[C@H](N)C(=O)O [L-norvaline]	–	–	127	146	107	96

— patent US20110318271A1, “Arginase Inhibitors for the Treatment of Depression” (UNIVERSITY OF TARTU, priority 2008, published 2011)
